System: NCI-H196 complex spheroid viability
Test: Anticancer human tumor NCI-H196 cell line growth inhibition [LSD1];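 note: spheroids exposed to agents for 7 days before readout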;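 for viability, T/C: 100% = DMSO vehicle control viability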
Settings: for IC50: curve of first compound; for viability, T/C: stronger effect = lower value
Method in brief: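 Drug combinations with the LSD1 inhibitor iadademstat tested on tumor cells co-cultured as spheroids with endothelial cells and mesenchymal stem cells. Concentrations descended in half-log increments from clinical Cmax or 10 microM.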

[1] = second compound 0.1 µM, first compound 0.00949 µM
[2] = second compound 0.1 µM, first compound 0.03 µM
[3] = second compound 0.1 µM, first compound 0.0949 µM
[4] = second compound 0.1 µM, first compound 0.3 µM
[5] = second compound 0.316 µM, first compound 0.00949 µM
[6] = second compound 0.316 µM, first compound 0.03 µM
[7] = second compound 0.316 µM, first compound 0.0949 µM
[8] = second compound 0.316 µM, first compound 0.3 µM
[9] = second compound 1 µM, first compound 0.00949 µM
[10] = second compound 1 µM, first compound 0.03 µM
[11] = second compound 1 µM, first compound 0.0949 µM
[12] = second compound 1 µM, first compound 0.3 µM
[13] = second compound 3.16 µM, first compound 0.00949 µM
[14] = second compound 3.16 µM, first compound 0.03 µM
[15] = second compound 3.16 µM, first compound 0.0949 µM
[16] = second compound 3.16 µM, first compound 0.3 µM
[17] = second compound 10 µM, first compound 0.00949 µM
[18] = second compound 10 µM, first compound 0.03 µM
[19] = second compound 10 µM, first compound 0.0949 µM
[20] = second compound 10 µM, first compound 0.3 µM

## CCc1c2c(nc3ccc(O)cc13)-c1cc3c(c(=O)n1C2)COC(=O)[C@]3(O)CC + NC1CCC(NC2CC2c2ccccc2)CC1
Second compound 0.1 µM
  IC50: 10 nM
Second compound 0.316 µM
  IC50: 9.56 nM
Second compound 1 µM
  IC50: 11 nM
Second compound 3.16 µM
  IC50: 10.1 nM
Second compound 10 µM
  IC50: 11.4 nM
Second compound 0.1 µM, first compound 0.000949 µM
  viability, T/C: 113%
Second compound 0.1 µM, first compound 0.003 µM
  viability, T/C: 104%
[1]
  viability, T/C: 52.8%
[2]
  viability, T/C: 3.31%
[3]
  viability, T/C: 0.73%
[4]
  viability, T/C: 1.14%
Second compound 0.316 µM, first compound 0.000949 µM
  viability, T/C: 123%
Second compound 0.316 µM, first compound 0.003 µM
  viability, T/C: 104%
[5]
  viability, T/C: 52.5%
[6]
  viability, T/C: 3.77%
[7]
  viability, T/C: 1.18%
[8]
  viability, T/C: 0.82%
Second compound 1 µM, first compound 0.000949 µM
  viability, T/C: 120%
Second compound 1 µM, first compound 0.003 µM
  viability, T/C: 111%
[9]
  viability, T/C: 57.1%
[10]
  viability, T/C: 2.51%
[11]
  viability, T/C: 0.62%
[12]
  viability, T/C: 0.86%
Second compound 3.16 µM, first compound 0.000949 µM
  viability, T/C: 109%
Second compound 3.16 µM, first compound 0.003 µM
  viability, T/C: 91.2%
[13]
  viability, T/C: 55.3%
[14]
  viability, T/C: 2%
[15]
  viability, T/C: 0.56%
[16]
  viability, T/C: 1.03%
Second compound 10 µM, first compound 0.000949 µM
  viability, T/C: 113%
Second compound 10 µM, first compound 0.003 µM
  viability, T/C: 98.7%
[17]
  viability, T/C: 60.1%
[18]
  viability, T/C: 3.63%
[19]
  viability, T/C: 0.8%
[20]
  viability, T/C: 0.85%

## Nc1ccccc1NC(=O)c1ccc(CNC(=O)OCc2cccnc2)cc1 + NC1CCC(NC2CC2c2ccccc2)CC1
Second compound 0.1 µM
  IC50: 62.2 nM
Second compound 0.316 µM
  IC50: 59.3 nM
Second compound 1 µM
  IC50: 88.6 nM
Second compound 3.16 µM
  IC50: 77.4 nM
Second compound 10 µM
  IC50: 73.5 nM
[1]
  viability, T/C: 82.9%
[2]
  viability, T/C: 66.6%
[3]
  viability, T/C: 41%
[4]
  viability, T/C: 12%
Second compound 0.1 µM, first compound 0.949 µM
  viability, T/C: 0.32%
Second compound 0.1 µM, first compound 3 µM
  viability, T/C: 1.24%
[5]
  viability, T/C: 81.2%
[6]
  viability, T/C: 69.3%
[7]
  viability, T/C: 36.4%
[8]
  viability, T/C: 11.9%
Second compound 0.316 µM, first compound 0.949 µM
  viability, T/C: 0.27%
Second compound 0.316 µM, first compound 3 µM
  viability, T/C: 0.3%
[9]
  viability, T/C: 84.8%
[10]
  viability, T/C: 73.3%
[11]
  viability, T/C: 49.9%
[12]
  viability, T/C: 12.2%
Second compound 1 µM, first compound 0.949 µM
  viability, T/C: 0.24%
Second compound 1 µM, first compound 3 µM
  viability, T/C: 0.35%
[13]
  viability, T/C: 85.3%
[14]
  viability, T/C: 78.9%
[15]
  viability, T/C: 43.4%
[16]
  viability, T/C: 10.2%
Second compound 3.16 µM, first compound 0.949 µM
  viability, T/C: 0.27%
Second compound 3.16 µM, first compound 3 µM
  viability, T/C: 0.26%
[17]
  viability, T/C: 89.7%
[18]
  viability, T/C: 73.6%
[19]
  viability, T/C: 44.3%
[20]
  viability, T/C: 12.1%
Second compound 10 µM, first compound 0.949 µM
  viability, T/C: 1.12%
Second compound 10 µM, first compound 3 µM
  viability, T/C: 0.38%

## O=C(c1cc(Cc2n[nH]c(=O)c3ccccc23)ccc1F)N1CCN(C(=O)C2CC2)CC1 + NC1CCC(NC2CC2c2ccccc2)CC1
Second compound 0.1 µM
  IC50: > 10000 nM
Second compound 0.316 µM
  IC50: > 10000 nM
Second compound 1 µM
  IC50: > 10000 nM
Second compound 3.16 µM
  IC50: > 10000 nM
Second compound 10 µM
  IC50: > 10000 nM
Second compound 0.1 µM, first compound 0.0316 µM
  viability, T/C: 91.8%
Second compound 0.1 µM, first compound 0.1 µM
  viability, T/C: 97.9%
Second compound 0.1 µM, first compound 0.316 µM
  viability, T/C: 91.7%
Second compound 0.1 µM, first compound 1 µM
  viability, T/C: 86.5%
Second compound 0.1 µM, first compound 3.16 µM
  viability, T/C: 93.5%
Second compound 0.1 µM, first compound 10 µM
  viability, T/C: 88.3%
Second compound 0.316 µM, first compound 0.0316 µM
  viability, T/C: 89.8%
Second compound 0.316 µM, first compound 0.1 µM
  viability, T/C: 103%
Second compound 0.316 µM, first compound 0.316 µM
  viability, T/C: 97.8%
Second compound 0.316 µM, first compound 1 µM
  viability, T/C: 94.8%
Second compound 0.316 µM, first compound 3.16 µM
  viability, T/C: 83.4%
Second compound 0.316 µM, first compound 10 µM
  viability, T/C: 83%
Second compound 1 µM, first compound 0.0316 µM
  viability, T/C: 89.9%
Second compound 1 µM, first compound 0.1 µM
  viability, T/C: 91.4%
Second compound 1 µM, first compound 0.316 µM
  viability, T/C: 95.6%
Second compound 1 µM, first compound 1 µM
  viability, T/C: 83.5%
Second compound 1 µM, first compound 3.16 µM
  viability, T/C: 89%
Second compound 1 µM, first compound 10 µM
  viability, T/C: 80.1%
Second compound 3.16 µM, first compound 0.0316 µM
  viability, T/C: 91%
Second compound 3.16 µM, first compound 0.1 µM
  viability, T/C: 87%
Second compound 3.16 µM, first compound 0.316 µM
  viability, T/C: 88%
Second compound 3.16 µM, first compound 1 µM
  viability, T/C: 87.4%
Second compound 3.16 µM, first compound 3.16 µM
  viability, T/C: 85.7%
Second compound 3.16 µM, first compound 10 µM
  viability, T/C: 87.5%
Second compound 10 µM, first compound 0.0316 µM
  viability, T/C: 89.9%
Second compound 10 µM, first compound 0.1 µM
  viability, T/C: 90.2%
Second compound 10 µM, first compound 0.316 µM
  viability, T/C: 88.1%
Second compound 10 µM, first compound 1 µM
  viability, T/C: 89.5%
Second compound 10 µM, first compound 3.16 µM
  viability, T/C: 85.7%
Second compound 10 µM, first compound 10 µM
  viability, T/C: 86.8%

— PubChem BioAssay AID1918958 (Molecular Pharmacology Branch, DTP, NCI, 2023)
